# Target: T1, fatty acyl CoA:cholesterol acyl transferase (ACAT) (Rattus norvegicus, UniProt O70536)
# T1 construct: The supernatant, containing the microsomal fraction, served as the source of the cholesterol-esterifying enzyme; from tissue; host or cells: rat adrenals, homogenate supernatant (1,000 x g) containing the microsomal fraction
# T1 sequence (O70536 1-545): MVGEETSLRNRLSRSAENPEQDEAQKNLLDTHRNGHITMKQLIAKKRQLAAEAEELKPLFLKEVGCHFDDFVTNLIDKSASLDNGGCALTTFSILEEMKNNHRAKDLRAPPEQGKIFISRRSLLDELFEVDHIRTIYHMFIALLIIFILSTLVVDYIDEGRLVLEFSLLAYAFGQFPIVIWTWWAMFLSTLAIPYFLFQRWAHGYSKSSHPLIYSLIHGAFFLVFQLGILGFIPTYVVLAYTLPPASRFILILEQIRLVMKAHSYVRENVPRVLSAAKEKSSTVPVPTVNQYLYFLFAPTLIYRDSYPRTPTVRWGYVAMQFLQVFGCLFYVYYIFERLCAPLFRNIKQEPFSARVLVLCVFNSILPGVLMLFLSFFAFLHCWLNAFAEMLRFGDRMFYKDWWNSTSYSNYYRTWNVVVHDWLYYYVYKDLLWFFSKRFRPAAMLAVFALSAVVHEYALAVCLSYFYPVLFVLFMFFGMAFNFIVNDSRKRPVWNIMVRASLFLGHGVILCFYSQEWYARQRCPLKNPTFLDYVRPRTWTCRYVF
# Assay: Inhibition of enzymatic esterification of cholesterol (ACAT) in rat adrenal supernatant containing the microsomal fraction
# Assay type: biochemical
# Conditions: final concentration of test compound 5.2 μg./ml., 14C-oleoyl CoA, 37° C., read-out: % INHIBITION (percent inhibition of the ACAT enzyme as compared to control values)
# Protocol: The compounds of the present invention were tested for their ability to inhibit the enzymatic esterification of cholesterol according to the following procedure:
# Rat adrenals were homogenized in 0.2M monobasic potassium phosphate buffer, pH 7.4, and centrifuged at 1,000 times gravity for 15 minutes at 5° C. The supernatant, containing the microsomal fraction, served as the source of the cholesterol-esterifying enzyme, fatty acyl CoA:cholesterol acyl transferase (ACAT). A mixture comprising 50 parts of adrenal supernatant, 10 parts of albumin (BSA) (50 mg./ml.), 20 parts of oleoyl CoA (^14 C-0.4 μCi), 3 parts of test compound, and 500 parts of buffer was pre-incubated at 37° C. for 10 minutes. After treatment with 20 parts of oleoyl CoA (^14 C-0.4 μCi), the mixture was incubated at 37° C. for 10 minutes. A control mixture, omitting the test compound, was prepared and treated in the same manner. The lipids from the incubation mixture were extracted into an organic solvent and separated by thin-layer chromatography. The cholesterol ester fraction was counted in a scintillation counter. This procedure is a modification of that described by Hashimoto, et al., Life Scie., 12 (Part II), 1-12 (1973).
# The results of this test on representative compounds of this invention appear in Table I. The final concentration of the test compound was 5.2 μg./ml., and effectiveness of the compound is expressed as percent inhibition of the ACAT enzyme as compared to control values.
row,SMILES,inhibition at 5.2 µg/mL
1,"O=C(CC1c2ccccc2Sc2ccccc21)Nc1ccc(C(=O)O)cc1 [4-[Thioxanthene-9-acetamido]benzoic acid, 4-[(9-Thioxanthenyl)acetamido]benzoic acid]",37%
2,"O=C(C=C1c2ccccc2C=Cc2ccccc21)Nc1ccc(C(=O)O)cc1 [4-(5H-Dibenzo[a,d]cycloheptene-Δ^5,α -acetamido) benzoic acid]",47%

# Further lines, results first:
row,inhibition at 5.2 µg/mL,SMILES
1,20%,"CCOC(=O)c1ccc(NC(=O)C=C2c3ccccc3C=Cc3ccccc32)cc1 [Ethyl 4-(5H-dibenzo[a,d]cycloheptene-Δ^5,α -acetamido) benzoate]"
2,9%,CCOC(=O)c1ccc(NC(=O)CC2c3ccccc3Sc3ccccc32)cc1 [Ethyl 4-[(9-thioxanthenyl)acetamido]benzoate]
3,51%,"O=C(C=C1c2ccccc2CCc2ccccc21)Nc1ccc(C(=O)O)cc1 [p-(10,11-Dihydro-5H-dibenzo[a,d]cycloheptene-Δ^5,α -acetamido)benzoic acid]"
